Source: patent US20050187194A1, “Preventive agents for diabetes mellitus” (SANKYO COMPANY LIMITED, priority 2002, published 2005)

Columns and labels:
GK rats [1] = assay: Improving effects on impaired glucose tolerance: oral glucose load in fasted GK rats, AUC of blood glucose; assay type: in vivo, rat; conditions: 2 g/kg glucose 1 hour later
Protocol: 6-week-old GK rats of (Charles River Japan, Inc.) which show IGT symptoms, but not diabetes mellitus, were fasted overnight. Compound A was orally administered at dosages of 10, 20 or 40 mg/kg. Two gram per kilogram of 50% (w/w) glucose solution was orally administered 1 hour after the administration of Compound A. The rats in the control group were administered orally 2 g/kg of 50% (w/w) glucose solution only.
The blood was collected from the tail vein just before and 0.5, 1, 2 and 4 hours after the glucose administration. Blood glucose level was determined by electric potential measurement method based on a glucose oxidase immobilized electrode using Glucoloader GXT (A&T Corp.).
On the abscissas, the time after the administration of Compound A was plotted, and on the ordinate, the blood glucose level of each individual was plotted. Each point was drawn with a straight line. The areas under the curves (AUCs) for the blood glucose levels of the graph obtained were calculated.
Using the areas under the curves (AUCs) for the blood glucose levels, the average value and standard error of each group were calculated. […]
The blood was collected from the tail vein just before and 0.5, 1 and 2 hours after the glucose administration. Blood glucose level was determined by electric potential measurement method based on a glucose oxidase immobilized electrode using Glucoloader GXT (A&T Corp.). […]

GK rats [2] = assay: Preventative effects on diabetes mellitus in GK rats prior to the crisis of diabetes (drug mixed in food, 8 weeks); assay type: in vivo, rat
Excerpt: 6-week-old GK rats (Charles River Japan, Inc.) which were prior to the crisis of diabetes mellitus, were used. Compound A was mixed with food powder for the rat (F2, Funabashi Farm Co.,) at concentrations of 0.04%, 0.2% and 1.0% (w/w) and was orally administered to 4-6 rats per group for 8 weeks ad libitum (the mean amount of food intake per rat: 17.3 g/day).
The rats in the control group were fed with only food powder.
Blood from each rat was collected from the tail vein every 2 weeks, and the blood glucose level, plasma lactate level and plasma triglyceride level were determined. Blood glucose level was determined by electric potential measurement method based on glucose oxidase immobilized electrode using Glucoloader GXT (A&T Corp.). Plasma lactate level was determined using a spectrophotometric method with Lactate Reagent (Sigma-Aldrich Japan K. K.), and plasma triglyceride level was determined using a spectrophotometric method with Triglyceride E Test Wako (Wako Pure Chemical Industries, Ltd.). When the blood was collected after the drug administration period and the drug withdrawal period for 2 weeks, glycosylated hemoglobin ratio was also determined with DCA-2000 (Bayer Medical Co., Ltd.).

patients = patients treated with metformin; N Engl J Med 346, 393-403 (2002); cited from earlier work

In the case of `CCOC(=O)[C@H](C)NP(=O)(N[C@@H](C)C(=O)OCC)c1ccc(-c2nc(N)sc2CC(C)C)o1` [Compound A, 2-amino-5-isobutyl-4-{2-[5-(N,N′-bis((S)-1-ethoxycarbonyl)ethyl)phosphonamido]furanyl}thiazole], the “AUCs of the blood glucose levels” value (GK rats [1]; GK rats fasted overnight, 10, 20 or 40 mg/kg oral, blood to 4 hours, FIG. 5) is reported as “decreased by the treatment of Compound A in a dose-dependent manner”, the “increase in the blood glucose level” value (GK rats [2]; 6-week-old GK rats, 0.04%, 0.2% and 1.0% (w/w) in food, oral, 8 weeks, FIG. 1) is reported as “inhibited in a dose-dependent manner” and the glycosylated hemoglobin ratio (GK rats [2]; GK rats, after 8 weeks of 0.04%, 0.2% and 1.0% (w/w) in food, FIG. 2) is reported as “decreased in a dose-dependent manner”. For the same compound, the “gastrointestinal symptoms such as diarrhea” value (GK rats [2]; GK rats, all the groups examined) was “no animal suffered gastrointestinal symptoms such as diarrhea”, the “blood glucose level after the drug administration period was terminated” value (GK rats [2]; GK rats, drug withdrawal period 2 weeks, FIG. 1) was “attained the same maximum level as that in the control group” and the “glycosylated hemoglobin ratio after withdrawal of administration” value (GK rats [2]; GK rats, drug withdrawal period 2 weeks, FIG. 2) was “increased to the same level as that in the control group”. The plasma triglyceride level (GK rats [2]; GK rats, during the administration period, FIG. 3) was “not increased as much as those in the control rats or was prevented from increase” and the plasma lactate level (GK rats [2]; GK rats, during the administration period, versus control group, FIG. 4) was “not significantly different from the control group”.
In the case of `CCOc1cc2ncnc(Nc3cccc(-c4csc(C)n4)c3)c2cc1OCC` [Compound B, (6,7-diethoxy-quinazolin-4-yl)-[3-(2-methyl-thiazol-4-yl)phenyl]amine], the “AUCs of the blood glucose levels” value (GK rats [1]; GK rats fasted overnight, 100 mg/kg or 300 mg/kg oral, blood to 2 hours, FIG. 6) is reported as “decreased by the treatment of Compound B in a dose-dependent manner”.
In the case of `CN(C)C(=N)N=C(N)N` [metformin], the “patients with gastrointestinal symptoms such as diarrhea” value (patients) is listed as “approximately 80%”.
